For 28 compounds, inhibition results are on record in US8436043B2 (Takeda Pharmaceutical Company Limited, priority 2008, dated 2013).

SMILES strings stand for the structures.

The experiment deals with T1, human glucagon receptor (Homo sapiens, UniProt P47871).
T1 construct: made in house; host or cells: FreeStyle CHO cells, transient transfection with pMSRαneo/hGCGR; membrane fraction (35,000 rpm pellet)
T1 sequence (P47871 26-477): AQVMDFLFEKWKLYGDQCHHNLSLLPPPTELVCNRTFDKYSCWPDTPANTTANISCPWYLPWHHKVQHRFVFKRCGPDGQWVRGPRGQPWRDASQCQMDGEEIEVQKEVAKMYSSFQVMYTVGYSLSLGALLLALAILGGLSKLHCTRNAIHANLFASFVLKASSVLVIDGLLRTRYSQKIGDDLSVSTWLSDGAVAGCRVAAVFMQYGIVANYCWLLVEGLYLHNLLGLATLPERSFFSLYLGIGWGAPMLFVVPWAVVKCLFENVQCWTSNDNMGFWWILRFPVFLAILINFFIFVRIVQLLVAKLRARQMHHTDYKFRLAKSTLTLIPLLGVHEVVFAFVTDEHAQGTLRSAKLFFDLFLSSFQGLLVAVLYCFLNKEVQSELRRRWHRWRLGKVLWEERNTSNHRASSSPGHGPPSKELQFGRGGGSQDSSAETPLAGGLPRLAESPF
Nature of the experiment: Glucagon binding inhibitory activity ([125I]-glucagon binding to glucagon receptor membrane protein). Conditions: test compound 10 μM; 0.4% DMSO = 0%, non-labeled glucagon 1 μM = 100%; read-out: inhibitory rate (%) at 10 μM. An outline of the steps: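 Receptor source was a membrane fraction of transiently transfected CHO cells bearing human receptor; 90 min room-temperature binding, filtration harvest, scintillation counting.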
As to `Cc1c(C(Nc2ccc(C(=O)N(C)CCC(=O)O)cc2)C2CCCCC2)oc2ccc(OCc3ccc(Cl)nc3)cc12` (stereo not shown) [Example A170, 3-{[(4-{[{5-[(6-chloropyridin-3-yl)methoxy]-3-methyl-1-benzofuran-2-yl}(cyclohexyl)methyl]amino}phenyl)carbonyl](methyl)amino}-propanoic acid], the inhibition at 10 µM came to 89%.
Regarding `Cc1c(C(Nc2ccc(C(=O)NCCC(=O)O)cc2)C(C)C)oc2ccc(OCc3ccccc3)cc12` (stereo not shown) [Example A171, 3-({[4-({1-[5-(benzyloxy)-3-methyl-1-benzofuran-2-yl]-2-methylpropyl}amino)phenyl]carbonyl}amino)propanoic acid], the inhibition at 10 µM was determined as 86%.
The result for `Cc1c(C(Nc2ccc(C(=O)N(C)CCC(=O)O)nc2)C(C)C)oc2ccc(OCc3ccccc3)cc12` (stereo not shown) [Example A172, 3-[{[5-({1-[5-(benzyloxy)-3-methyl-1-benzofuran-2-yl]-2-methylpropyl}amino)pyridin-2-yl]carbonyl}(methyl)amino]propanoic acid] reads 82%; that for `COCCOc1ccc2oc(C(Nc3ccc(C(=O)N(C)CCC(=O)O)cc3)C(C)C)c(C)c2c1` (stereo not shown) [Example A173, 3-[{[4-({1-[5-(2-methoxyethoxy)-3-methyl-1-benzofuran-2-yl]-2-methylpropyl}amino)phenyl]carbonyl}(methyl)amino]propanoic acid], 74%; that for `COc1ccc(-c2ccc3oc(C(Nc4ccc(C(=O)N(C)CCC(=O)O)cc4)C4CCCCC4)c(C)c3c2)cn1` (stereo not shown) [Example A174, 3-[{[4-({cyclohexyl[5-(6-methoxypyridin-3-yl)-3-methyl-1-benzofuran-2-yl]methyl}amino)phenyl]carbonyl}(methyl)amino]propanoic acid], 98%.
Regarding `Cc1c(C(Nc2ccc(C(=O)N(C)CCC(=O)O)cc2)C(C)C)oc2cccc(F)c12` (stereo not shown) [Example A175, 3-{[(4-{[1-(4-fluoro-3-methyl-1-benzofuran-2-yl)-2-methylpropyl]amino}phenyl)carbonyl](methyl)amino}propanoic acid], the inhibition at 10 µM was 68%.
The result for `Cc1c(C(Nc2ccc(C(=O)N(C)CCC(=O)O)cc2)C2CCCCC2)oc2ccc(-c3ccccc3)cc12` (stereo not shown) [Example A176, 3-{[(4-{[cyclohexyl(3-methyl-5-phenyl-1-benzofuran-2-yl)methyl]amino}phenyl)carbonyl](methyl)amino}propanoic acid] reads 96%.
As for `COc1ncccc1-c1ccc2oc(C(Nc3ccc(C(=O)N(C)CCC(=O)O)cc3)C3CCCCC3)c(C)c2c1` (stereo not shown) [Example A177, 3-[{[4-({cyclohexyl[5-(2-methoxypyridin-3-yl)-3-methyl-1-benzofuran-2-yl]methyl}amino)phenyl]carbonyl}(methyl)amino]propanoic acid], the inhibition at 10 µM stood at 90%.
Under `Cc1noc(C)c1-c1ccc2oc(C(Nc3ccc(C(=O)N(C)CCC(=O)O)cc3)C3CCCCC3)c(C)c2c1` (stereo not shown) [Example A178, 3-[{[4-({cyclohexyl[5-(3,5-dimethylisoxazol-4-yl)-3-methyl-1-benzofuran-2-yl]methyl}amino)phenyl]carbonyl}(methyl)amino]propanoic acid] stands 86%; under `CCC(Nc1ccc(C(=O)N(C)CCC(=O)O)cc1)c1oc2ccc(OCc3ccccc3)cc2c1C` (stereo not shown) [Example A179, 3-[{[4-({1-[5-(benzyloxy)-3-methyl-1-benzofuran-2-yl]propyl}amino)phenyl]carbonyl}(methyl)amino]propanoic acid], 84%; under `Cc1c(C(Nc2ccc(C(=O)N(C)CCC(=O)O)cc2)C(C)C)oc2ccc(OC3CCOCC3)cc12` (stereo not shown) [Example A180, 3-(methyl{[4-({2-methyl-1-[3-methyl-5-(tetrahydro-2H-pyran-4-yloxy)-1-benzofuran-2-yl]propyl}amino)phenyl]carbonyl}amino)propanoic acid], 83%.
Under `Cc1c(C(Nc2ccc(C(=O)N(C)CCC(=O)O)cc2)C2CCCCC2)oc2ccc(-c3cnn(C)c3)cc12` (stereo not shown) [Example A181, 3-[{[4-({cyclohexyl[3-methyl-5-(1-methyl-1H-pyrazol-4-yl)-1-benzofuran-2-yl]methyl}amino)phenyl]carbonyl}(methyl)amino]propanoic acid] stands 88%; under `COc1ccc(-c2ccc3oc(C(Nc4ccc(C(=O)N(C)CCC(=O)O)cc4)C(C)C)c(C)c3c2)cn1` (stereo not shown) [Example A182, 3-[{[4-({1-[5-(6-methoxypyridin-3-yl)-3-methyl-1-benzofuran-2-yl]-2-methylpropyl}amino)phenyl]carbonyl}(methyl)amino]propanoic acid], 95%; under `COc1ncccc1-c1ccc2oc(C(Nc3ccc(C(=O)N(C)CCC(=O)O)cc3)C(C)C)c(C)c2c1` (stereo not shown) [Example A183, 3-[{[4-({1-[5-(2-methoxypyridin-3-yl)-3-methyl-1-benzofuran-2-yl]-2-methylpropyl}amino)phenyl]carbonyl}(methyl)amino]propanoic acid], 88%.
The result for `Cc1c(C(Nc2ccc(C(=O)N(C)CCC(=O)O)cc2)C(C)C)oc2ccc(C3CC3)cc12` (stereo not shown) [Example A184, 3-{[(4-{[1-(5-cyclopropyl-3-methyl-1-benzofuran-2-yl)-2-methylpropyl]amino}phenyl)carbonyl](methyl)amino}propanoic acid] reads 74%.
Take `Cc1c(C(Nc2ccc(C(=O)N(C)CCC(=O)O)cn2)C2CCCCC2)oc2c(F)cc(F)cc12` (stereo not shown) [Example A185, 3-{[(6-{[cyclohexyl(5,7-difluoro-3-methyl-1-benzofuran-2-yl)methyl]amino}pyridin-3-yl)carbonyl](methyl)amino}propanoic acid]: the inhibition at 10 µM came out at 71%.
For the compound `Cc1c(C(Nc2ccc(C(=O)N(C)CCC(=O)O)cc2)C2CCCCC2)oc2ccc(N3CCOCC3)cc12` (stereo not shown) [Example A186, 3-[{[4-({cyclohexyl[3-methyl-5-(morpholin-4-yl)-1-benzofuran-2-yl]methyl}amino)phenyl]carbonyl}(methyl)amino]propanoic acid], the inhibition at 10 µM was determined as 85%.
Under `Cc1c(C(Nc2ccc(C(=O)N(C)CCC(=O)O)cc2)C2CCCCC2)oc2ccc(N3CCSCC3)cc12` (stereo not shown) [Example A187, 3-[{[4-({cyclohexyl[3-methyl-5-(thiomorpholin-4-yl)-1-benzofuran-2-yl]methyl}amino)phenyl]carbonyl}(methyl)amino]propanoic acid] stands 90%.
The result for `COCCN(C)c1ccc2oc(C(Nc3ccc(C(=O)N(C)CCC(=O)O)cc3)C3CCCCC3)c(C)c2c1` (stereo not shown) [Example A188, 3-[({4-[(cyclohexyl{5-[(2-methoxyethyl)(methyl)amino]-3-methyl-1-benzofuran-2-yl}methyl)amino]phenyl}carbonyl)(methyl)amino]propanoic acid] reads 77%; that for `Cc1c(C(Nc2ccc(C(=O)NCCC(=O)O)cc2)C2CCCC2)oc2ccc(F)cc12` (stereo not shown) [Example A190, 3-{[(4-{[cyclopentyl(5-fluoro-3-methyl-1-benzofuran-2-yl)methyl]amino}phenyl)carbonyl]amino}propanoic acid], 86%.
The result for `CCC(CC)C(Nc1ccc(C(=O)NCCC(=O)O)cc1)c1oc2ccc(F)cc2c1C` (stereo not shown) [Example A191, 3-{[(4-{[2-ethyl-1-(5-fluoro-3-methyl-1-benzofuran-2-yl)butyl]amino}phenyl)carbonyl]amino}propanoic acid] reads 82%; that for `Cc1c(C(Nc2ccc(C(=O)N(C)CCC(=O)O)cc2)C(C)C)oc2ccc(F)cc12` (stereo not shown) [Example A192], 72%; that for `Cc1c(C(Nc2ccc(C(=O)NCCC(=O)O)cc2)C(C)C)oc2ccc(F)cc12` (stereo not shown) [Example A193, 3-{[(4-{[1-(5-fluoro-3-methyl-1-benzofuran-2-yl)-2-methylpropyl]amino}phenyl)carbonyl]amino}propanoic acid], 80%.
On to `Cc1cc(COc2ccc3oc(C(Nc4ccc(C(=O)N(C)CCC(=O)O)cc4)C4CCCCC4)c(C)c3c2)no1` (stereo not shown) [Example A194, 3-[({4-[(cyclohexyl{3-methyl-5-[(5-methylisoxazol-3-yl)methoxy]-1-benzofuran-2-yl}methyl)amino]phenyl}carbonyl)(methyl)amino]propanoic acid], for which the inhibition at 10 µM was 88%.
As to `Cc1c(C(Nc2ccc(C(=O)N(C)CCC(=O)O)cc2)C2CCCCC2)oc2ccc(OCC(C)(C)O)cc12` (stereo not shown) [Example A195, 3-[{[4-({cyclohexyl[5-(2-hydroxy-2-methylpropoxy)-3-methyl-1-benzofuran-2-yl]methyl}amino)phenyl]carbonyl}(methyl)amino]propanoic acid], the inhibition at 10 µM turned out to be 84%.
On to `Cc1c(C(Nc2ccc(C(=O)N(C)CCC(=O)O)cc2)C2CCCCC2)oc2ccc(OCC3(C)COC3)cc12` (stereo not shown) [Example A196, 3-[({4-[(cyclohexyl{3-methyl-5-[(3-methyloxetan-3-yl)methoxy]-1-benzofuran-2-yl}methyl)amino]phenyl}carbonyl)(methyl)amino]propanoic acid], for which the inhibition at 10 µM was found to be 87%.
With `Cc1c(C(Nc2ccc(C(=O)N(C)CCC(=O)O)cc2)C2CCCCC2)oc2ccc(Oc3ncccc3C#N)cc12` (stereo not shown) [Example A198, 3-{[(4-{[{5-[(3-cyanopyridin-2-yl)oxy]-3-methyl-1-benzofuran-2-yl}(cyclohexyl)methyl]amino}phenyl)carbonyl](methyl)amino}-propanoic acid], the inhibition at 10 µM came out at 87%.
Turning to `Cc1c(C(Nc2ccc(C(=O)N(C)CCC(=O)O)cc2)C2CCCCC2)oc2ccc(OC3CCS(=O)(=O)CC3)cc12` (stereo not shown) [Example A199, 3-[({4-[(cyclohexyl{5-[(1,1-dioxidotetrahydro-2H-thiopyran-4-yl)oxy]-3-methyl-1-benzofuran-2-yl}methyl)amino]phenyl}carbonyl)(methyl)amino]propanoic acid], the inhibition at 10 µM worked out at 88%.
